The values that follow come from patent US20190225643A1, “NOVEL NUCLEOSIDE ANALOGS AND USE THEREOF IN THERAPEUTIC TREATMENT” (CORNELL UNIVERSITY, priority 2016, published 2019).

The structures appear in SMILES notation. Where two headings read alike, the source gives them in different places. A value given as a limit tells only on which side of the number the result lay.

One data set has as its system U266 (MM). As to the kind of experiment: cells. Type of data set: cell-based. The protocol: (§1) Cell viability assays were performed by plating log-phase cells in RPMI complete media with 20% FBS at 1*10^5 cells/mL, with concentrations of 6-ETI or phospho-6-ETI ranging from 0.1 nM to 100 μM. ATP content at 24, 48 and 72 hours post-treatment was measured by the CellTiter-Glo kit (Promega, Madison, Wis.), or by Trypan blue assay as indicated. The LC50 for 6-ETI in each cell line was determined using online EC50 software at changbioscience.com or using GraphPad Prism to determine the LC50 for 6-ETI, phospho-6-ETI and nucleoside analogs in MM cell lines and primary MM patient samples.

The subject of the next data set is IBL-1 (EBV+ DLBCL). As to the kind of experiment: cells. Type of data set: cell-based. As for the experimental part:
as §1

In the next data set the test system is BC3 (PEL). As to the kind of experiment: cells. It is filed as cell-based. As for the experimental part: as §1
For data set [1], the system named is BC3NFRen-luc #3 PEL xenograft. As to the kind of experiment: PEL xenograft model (BC3NFRen-luc #3 in NOD-SCID mice). Type of data set: in vivo. Conditions: 200 mg/kg for 9 days. The protocol: The BC3 in vivo xenograft model was set up as previously described (6). Essentially, ˜4-6 week old male NOD-SCID mice (Jackson Labs Stock# 001303) were injected intraperitoneally (I.P.) with 1*10^7 BC3NFRen-luc #3 cells and followed by in vivo imaging every three days. After imaging on day 5 to confirm establishment of the tumor, the mice were randomized to vehicle, low dose and high dose cohorts, with average tumor burden distributed evenly across the groups. Each dose cohort contained 10 mice. Mice were treated for nine days beginning at randomization with vehicle (PBS-Tween80), low dose 6-ETI (150 mg/kg/day), or high dose 6-ETI (300 mg/kg/day). Mice were treated with 200 mg/kg of the 6-ETI analogs (phospho-6ETI and 6-ETI cAMP) for 9 days. We monitored mice for tumor growth by live imaging and weighing, with sacrifice point determined to be a net gain or loss of 10% body weight over a week. Upon reappearance of refractory tumors, mice were re-treated for a further 9-day interval, and followed for a total of 100 days. Compound effects were assessed on overall survival, progression-free survival and tumor burden by Kaplan-Meier curves generated using GraphPad Prism software, and determined p values by 2-tailed analysis with log-rank tests.

Data set [2] concerns sensitive cell lines (expressing ADK at high levels). Nature of the data set: Viability in 6-ETI-sensitive cell lines. Type of data set: cell-based. Conditions: p6-ETI: sensitive ADK-high lines; c6-ETI: PEL, MM, colon and pancreatic adenocarcinoma lines. As for the experimental part:
as §1

For data set [3], the system named is colon (RKO, HCT116, DID1) and pancreatic (PA-TU-8988T) cancer cell lines. Nature of the data set: Viability of adenocarcinoma cell lines. Type of data set: cell-based. As for the experimental part: as §1
The subject of another data set is PEL cell line. Nature of the data set: PEL cell line viability assay of C8-modified analogs. Type of data set: cell-based. As for the experimental part:
as §1

Data set [4] has as its system BC3 cells treated with 6-ETI. Nature of the data set: 6-ETI viability curves after ADK inhibitor pre-treatment. Type of data set: cell-based, human. As to conditions: pre-treatment with 1 μM ADK inhibitor. As for the experimental part: as §1
The target in another data set is ADK (Homo sapiens, UniProt P55263). As to conditions: known values; read-out: IC50 of ADK inhibition in intact cells; cited from earlier work.
For data set [5], the system named is ADK-low resistant cell lines. As to the kind of experiment: Viability in ADK-low resistant cell lines. Type of data set: cell-based. Conditions: some lines, not all. The protocol:
as §1

Data set [6] deals with MM cell lines JJN3, MM1S, U266 and CAG. Nature of the data set: CellTiter-Glo viability assay, MM cell lines. It is filed as cell-based. Conditions: 48 hrs. The protocol:
as §1

Setting [7] is: Homo sapiens, U-266, 48 h, read-out: LC50 U266 (MM) in nM.
[8] abbreviates: Homo sapiens, 48 h, read-out: LC50 IBL-1 (DLBCL).
The mark [9] stands for this setting: Homo sapiens, 48 h, read-out: LC50 BC3 (PEL) in nM.
The mark [10] stands for this setting: Homo sapiens, U-266, 48 h, read-out: LC50 U266 (MM).
Where [11] appears, read: Homo sapiens, 48 h, read-out: LC50 BC3 (PEL).

Chain of ADK (P55263 whole entry): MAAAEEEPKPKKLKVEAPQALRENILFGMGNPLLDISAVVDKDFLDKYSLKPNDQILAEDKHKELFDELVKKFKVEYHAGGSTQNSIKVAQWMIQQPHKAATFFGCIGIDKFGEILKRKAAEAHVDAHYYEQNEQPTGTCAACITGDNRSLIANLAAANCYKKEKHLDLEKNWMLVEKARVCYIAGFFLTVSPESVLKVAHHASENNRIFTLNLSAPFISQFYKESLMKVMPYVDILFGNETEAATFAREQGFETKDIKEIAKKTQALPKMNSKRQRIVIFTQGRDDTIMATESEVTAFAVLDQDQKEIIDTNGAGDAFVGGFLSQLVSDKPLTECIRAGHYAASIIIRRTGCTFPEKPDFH

`Sc1ncnc2nc[nH]c12` [6-Mercaptopurine]: the results for the CC50 in the data set with U266 (MM) (setting [7]), in the data set on IBL-1 (EBV+ DLBCL) (setting [8]) and in the data set with BC3 (PEL) (setting [9]) were 10300 nM, more than 100000 nM and 5140 nM, respectively.

In the case of `CCSc1ncnc2c1ncn2[C@@H]1O[C@@H]2COP(=O)(O)OC2C1O` (stereo partly shown) [c6-ETI], in [1], the “tumor growth in vivo” value is given as “effectively inhibited tumor growth in vivo”. In data set [2], the “effectiveness compared with 6-ETI” value is “equally as effective”. Besides, the LC50 result in [3] is “nanomolar range”.

In the data set with PEL cell line, `CCSc1ncnc2c1nc(N=[N+]=[N-])n2C1OC(CO)C(O)C1O` (stereo not shown) [N3 group at C8 position] had an IC50 of 1130 nM.

`Nc1ncnc2c1ncn2[C@@H]1O[C@H](CO)[C@@H](O)[C@@H]1O` [Vidarabine]: the CC50 in the data set on U266 (MM) (setting [10]), in the data set on IBL-1 (EBV+ DLBCL) (setting [8]) and in the data set on BC3 (PEL) (setting [11]) was more than 100000 nM each time.

For `Nc1ncnc2nc(-c3ccc(N4CCOCC4)nc3)cc(-c3cccc(Br)c3)c12` [ABT-702], in data set [4], the “rescue from 6-ETI-induced cell death” value is reported as “effectively rescued PEL cells from cell death”. In addition, on ADK, the half-inhibitory concentration (IC50) was 51 nM.

`CCSc1ncnc2c1nc(Cl)n2[C@@H]1O[C@H](CO)[C@@H](O)[C@H]1O` [C1 group at C8 position, 8-chloro, 6-thioethyl purine riboside] had a concentration for half-maximal inhibition (IC50) with PEL cell line of 1410 nM.

Consider `Nc1ncnc2c1c(I)cn2[C@@H]1C[C@H](N)[C@@H](O)[C@H]1O` [Compound A-134974], for which the “rescue from 6-ETI-induced cell death” value in data set [4] is on record as “effectively rescued PEL cells from cell death”. The half-maximal inhibitory concentration (IC50) on ADK is 50 nM.

With `Nc1nc(Cl)nc2c1ncn2[C@H]1C[C@H](O)[C@@H](CO)O1` [Cladribine], the CC50 in the data set on U266 (MM) (setting [7]) was 29200 nM; with IBL-1 (EBV+ DLBCL) (Homo sapiens, 48 h, read-out: LC50 IBL-1 (DLBCL) in nM), 290 nM; in the data set with BC3 (PEL) (setting [9]), 5240 nM.

For `O=c1[nH]cnc2c1ncn2[C@H]1CC[C@@H](CO)O1` [Didanosine], the CC50 with U266 (MM) (setting [10]), with IBL-1 (EBV+ DLBCL) (setting [8]) and in the data set with BC3 (PEL) (setting [11]) was more than 100000 nM throughout.

For the compound `Nc1nc(F)nc2c1ncn2[C@@H]1O[C@H](CO)[C@@H](O)[C@@H]1O` [Fludarabine], the CC50 was 90700 nM in the data set with U266 (MM) (48 hours, CellTiter-Glo, read-out: LC50 U266 (MM)); 28900 nM in the data set with IBL-1 (EBV+ DLBCL) (48 hours, CellTiter-Glo, read-out: LC50 IBL-1 (DLBCL)); more than 100000 nM in the data set with BC3 (PEL) (48 hours, CellTiter-Glo, read-out: LC50 BC3 (PEL)).

The compound `CCSc1ncnc2c1nc(Br)n2[C@@H]1O[C@H](CO)[C@@H](O)[C@H]1O` [Br group at C8 position, 8-bromo, 6-thioehtyl purine riboside] came in with a 50% inhibitory concentration (IC50) in the data set on PEL cell line of 8130 nM.

Regarding `CCSc1ncnc2c1ncn2[C@@H]1O[C@H](COP(=O)(O)O)[C@@H](O)[C@H]1O` [p6-ETI], the “tumor growth in vivo” value in data set [1] is “effectively inhibited tumor growth in vivo”. Further, the “sensitivity of ADK-low resistant cell lines” value in data set [5] is “only partial sensitivity”. In addition, the “effectiveness compared with 6-ETI” value in data set [2] is “equally effective as 6-ETI”. For the same compound, the “effect on resistance of IBL-1 cells” value with IBL-1 (EBV+ DLBCL) (IBL-1 express low levels of ADK, 48 hrs) is “partially overcomes resistance”. Besides, the LC50 result in data set [3] is given as “nanomolar range”; in data set [6], “high nM range”.
